tested on: CtELO6; test: Elongation of fatty acid by elongase CtELO6 studied in yeast, Saccharomyces cerevisiae; assay type: cell-based, Conidiobolus thromboides; conditions: not given
Source text: Accordingly, it is expected that the production of 20:2:11,14 by CtELO6 in plants may provide increased substrate for EhELO1, providing enhanced production of DDA in plants expressing both CtELO6 and EhELO1.

SMILES	elongation efficiency
CCCCC/C=C\C/C=C\CCCCCCCC(=O)O [18:2-9, 12, linoleic acid]	more than 20%

tested on: EhELO1; test: Elongation efficiency on fatty acid substrates by EhELO1 expressed in Saccharomyces cerevisiae (in vivo activity assay); assay type: cell-based, Eranthis hyemalis; conditions: yeast INVSc1 transformant with EhELO1/pHVX2; 0.25 mM free fatty acid substrate with tergitol, 20° C. for 2 days; calculated from peak area of FAMEs; means of four replicates with standard deviation
Protocol: To define the diverse activity of the discovered elongase (EhELO1) from winter aconite, a variety of possible common fatty acids and unusual fatty acids that differ in the number and position of double bonds as well as in the chain length was exogenously supplied to the yeast transformant expressing the elongase EhELO1 for in vivo activity assays. The conversion of substrates to products was measured and used for the comparison of elongation efficiencies among fatty acid substrates.
The EhELO1 coding sequence was released from plasmid, EhELO1/pYES2.1 and sub-cloned into another yeast expression vector pHVX2 under the control of phosphoglycerate kinase 1 constitutive promoter, giving a plasmid EhELO1/pHVX2. The recombinant plasmid was transformed into Saccharomyces cerevisiae INVSc1. The yeast transformants with either EhELO1 or empty vector pHVX2 were grown at 30° C. for 1 day. The overnight cultures were diluted to an OD600 of 0.1 in the same medium supplemented with or without 0.25 mM of various free fatty acids in the presence of tergitol. After incubation at 20° C. for 2 days, yeast cells were harvested and washed once with tergitol and once with water. Total fatty acids in yeast transformants were converted to FAMES by an acid transmethylation process and analyzed by gas chromatography.

SMILES	Elongation efficiency (%)
CCCCCCCC/C=C\CCCCCCCC(=O)O [18:1-9]	3.3 ± 0.07
CCCCCC/C=C\CCCCCCCCCC(=O)O [18:1-11]	49.4 ± 1.79
CCCCC/C=C\C/C=C\CCCCCCCC(=O)O [18:2-9, 12, linoleic acid]	44.6 ± 3.26
CCCCC/C=C\C/C=C\C/C=C\CCCCC(=O)O [18:3-6,9, 12, γ-linolenic acid]	28.3 ± 1.95
CC/C=C\C/C=C\C/C=C\CCCCCCCC(=O)O [18:3-9, 12, 15, linolenic acid]	54.7 ± 0.83
CC/C=C\C/C=C\C/C=C\C/C=C\CCCCC(=O)O [18:4-6,9, 12, 15]	25.0 ± 0.37
CCCCCCCCC=CCCCCCCCCCC(=O)O [20:1-11]	12.6 ± 0.23
CCCCC/C=C\C/C=C\CCCCCCCCCC(=O)O [20:2-11, 14, eicosadienoic acid]	48.5 ± 2.12
CCCCC/C=C\C/C=C\C/C=C\CCCCCCC(=O)O [20:3-8, 11, 14]	46.4 ± 1.44
CC/C=C\C/C=C\C/C=C\CCCCCCCCCC(=O)O [20:3-11, 14, 17]	61.8 ± 0.35
CCCCC/C=C\C/C=C\C/C=C\C/C=C\CCCC(=O)O [20:4-5,8, 11, 14, arachidonic acid]	36.2 ± 0.92
CC/C=C\C/C=C\C/C=C\C/C=C\CCCCCCC(=O)O [20:4-8, 11, 14, 17]	50.3 ± 0.53
CC/C=C\C/C=C\C/C=C\C/C=C\C/C=C\CCCC(=O)O [20:5-5,8, 11, 14, 17, eicosapentaenoic acid]	39.8 ± 0.43
CCCCCCCC/C=C\CCCCCCCCCCCC(=O)O [22:1-13]	0.0 ± 0.0
CCCCC/C=C\C/C=C\CCCCCCCCCCCC(=O)O [22:2-13, 16, docosadienoic acid]	3.4 ± 0.17
CC/C=C\C/C=C\C/C=C\CCCCCCCCCCCC(=O)O [22:3-13, 16, 19, docosatrienoic acid]	9.7 ± 0.13
CCCCC/C=C\C/C=C\C/C=C\C/C=C\CCCCCC(=O)O [22:4-7, 10, 13, 16]	20.5 ± 0.37
CCC=CCC=CCC=CCC=CCCCCCCCCC(=O)O [22:4-10, 13, 16, 19]	32.7 ± 0.49
CC/C=C\C/C=C\C/C=C\C/C=C\C/C=C\CCCCCC(=O)O [22:5-7, 10, 13, 16, 19]	31.9 ± 0.19
CC/C=C\C/C=C\C/C=C\C/C=C\C/C=C\C/C=C\CCC(=O)O [22:6-4,7, 10, 13, 16, 19, docosahexaenoic acid]	10.8 ± 0.52

same assay, conditions: yeast transformant expressing EhELO1, comparison among supplied substrates

SMILES	Substrate preference of EhELO1 (in words)
CCCCCC/C=C\CCCCCCCCCC(=O)O [18:1-11]	highly active
CC/C=C\C/C=C\C/C=C\CCCCCCCCCC(=O)O [20:3-11, 14, 17]	most preferred
